Test results taken from patent publication US20240082260A1, “INHIBITOR OF PROTEIN KINASE D FOR USE IN PREVENTION OR TREATMENT OF HYPERLIPIDEMIA” (priority 2021, published 2024).

Legend:
[1] = system: phosphorylated PKD2; conditions: oral 10 mg/kg once a day, HFD
Protocol: PKD inhibitor CRT0066101 was dissolved in water (10 mg/kg) and administered orally to the mice by daily gavage, while the control mice were gavaged with water. Mice were maintained on the specified diets and had ab libitum access to food and water. C57BL/6 mice were administered CRT inhibitor treatment at 4-weeks of age, while for the rescue experiment, inhibitor was given under the same circumstances but treatment started only after 7 weeks of HFD feeding. Intestinal barrier permeability was further assessed 1 hour after oral gavage of FITC-Dextran 4.
Proteins from tissues and cell culture were extracted with RIPA buffer supplemented with phosphatase and protease inhibitor (PPI, Thermo Fisher Scientific). Protein concentration was measured by Pierce™ BCA Protein Assay Kit (Thermo Fisher Scientific) following the manufacturer's protocol. Reduced protein extracts were separated on 10% SDS-PAGE gels by electrophoresis and transferred to PVDF membranes under wet transfer. Membranes were blocked in 5% (w/v) milk in TBS-T before overnight probing with indicated primary antibodies at 4° C., followed by TBS-T washes and incubation with corresponding secondary antibody.

[2] = system: LDLR-/- mice; test: Atheroma formation in high cholesterol diet-fed LDLR-/- mice; type: in vivo, mouse; conditions: oral 10 mg/kg a day, 7th to 17th week of high cholesterol diet, vs solvent
Source text: To assess the impact of PKD2 on cholesterol levels as well as on atheroma formation, we utilized a mouse genetic model of atheroma formation and mice carrying inactivatory mutation in the sequence encoding PKD2 (Matthews et al, 2010). Mice deficient for Low-density lipoprotein receptor (LDLR), develop hyperlipidemia (elevated levels of cholesterol) and deposit a significant amount of atherosclerotic plaques in the vessels especially when fed with a high cholesterol diet (containing 1.25% of the cholesterol in the food) (Ishibashi et al, 1993). We crossed mice deficient for LDLR (LDLR−/−) and mice carrying inactivatory mutation of PKD2 (PKD^ki/ki) to generate double mutant mice (LDLR−/− PKD^ki/ki) and corresponding control animals, LDLR−/−. These animals were fed for 18 weeks with high cholesterol diet. […] The relative plaque area was also quantified.
To test if inhibition of PKD by CRT0066101 compound is also sufficient to reduce atherosclerotic plaque formation, we also utilized high cholesterol diet-fed LDLR−/− mice as a model. […] After the 17th week of the experiment, mice were sacrificed and lipid levels in the blood, as well as the amount of atherosclerotic plaques, were assessed as described for the genetic model above.

[3] = system: Caco2 cells deficient in PKD2; test: 14C-fatty acid basolateral release in Caco2 cells expressing shPkd2 in transwell system; type: cell-based, human; conditions: 24 h, FIG. 6B
Protocol: Caco2 cells were cultured in Dulbecco's modified eagle's medium 4.5 g/L glucose (DMEM), 10% fetal bovine serum (FBS), non-essential amino acids (NEAA), 1 mM sodium pyruvate, and 40 μg/mL gentamycin. For the generation of shRNA cell lines, Pkd2 shRNA lentiviral sequences or scramble (non-targeting) were first cloned into the pLKO.1-puro vector then packed into viral particles in packaging cells (HEK293T) using 3rd generation packaging vectors. Caco2 cells were spinfected with viral supernatant then selected with puromycin and the deletion efficiency was further assessed by western blot.
Lipid transport studies were assessed in Caco2 cells seeded in trans-wells. 1.5×10^5 cells were seeded into a 12-well cell culture insert of 1 μm pore size Trans-well and maintained in for 14 consecutive days with media change every two days. For the lipids uptake and release, the apical side of the membrane was loaded with radioactive ^14C-palmitic acid (0.2 μCi), oleic acid (1 mM), and taurocholic acid (2 mM) in DMEM high glucose 10% FBS. The basal medium contained DMEM high glucose 0.1% FBS. After 24 hours of incubation, cell lysates and the apical and basolateral medium was collected and the ^14C-palmitic acid was measured in a scintillation counter for aliquots of apical and basal medium and for cell lysate. […]

[4] = biological target: T1, PKD2 (Homo sapiens, UniProt Q9BZL6); test: In-vitro kinase assay: PKD2 phosphorylation of APOA4; type: biochemical; conditions: recombinant human PKD2 and APOA4, western blot, FIG. 5H
T1 construct: purchased Abcam ab60875
T1 sequence (Q9BZL6 1-878): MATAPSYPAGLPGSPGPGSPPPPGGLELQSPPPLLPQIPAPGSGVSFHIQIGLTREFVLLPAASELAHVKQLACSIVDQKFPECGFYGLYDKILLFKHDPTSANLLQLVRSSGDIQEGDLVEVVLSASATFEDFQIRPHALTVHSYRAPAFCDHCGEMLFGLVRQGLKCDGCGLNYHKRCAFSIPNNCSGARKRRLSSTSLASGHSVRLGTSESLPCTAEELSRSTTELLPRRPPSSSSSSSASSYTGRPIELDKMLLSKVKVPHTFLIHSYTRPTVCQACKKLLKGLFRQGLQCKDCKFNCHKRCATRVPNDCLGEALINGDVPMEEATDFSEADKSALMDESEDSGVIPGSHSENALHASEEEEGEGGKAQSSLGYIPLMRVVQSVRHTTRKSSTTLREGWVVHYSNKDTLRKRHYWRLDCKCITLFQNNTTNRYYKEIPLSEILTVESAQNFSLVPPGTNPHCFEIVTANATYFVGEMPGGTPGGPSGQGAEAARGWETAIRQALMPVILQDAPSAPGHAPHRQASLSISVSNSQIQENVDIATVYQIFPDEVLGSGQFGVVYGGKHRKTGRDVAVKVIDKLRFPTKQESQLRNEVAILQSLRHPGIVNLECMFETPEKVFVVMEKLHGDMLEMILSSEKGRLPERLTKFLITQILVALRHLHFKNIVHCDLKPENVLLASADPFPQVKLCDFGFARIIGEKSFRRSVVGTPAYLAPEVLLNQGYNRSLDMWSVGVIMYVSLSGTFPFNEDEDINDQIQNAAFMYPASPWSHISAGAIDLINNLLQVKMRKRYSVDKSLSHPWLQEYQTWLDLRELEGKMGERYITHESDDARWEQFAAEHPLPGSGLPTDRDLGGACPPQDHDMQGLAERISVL
Protocol: Recombinant human proteins used for the study, PKD2 and APOA4, were both purchased from Abcam. […] Then, western blot was performed and incubated with a primary antibody against the phosphorylated motif (RxxS/T*) (Cell Signaling).

CC[C@@H](N)CNc1ccnc(-c2cc(-c3cnn(C)c3)ccc2O)n1 [CRT0066101]
PKD activity in liver or adipose tissue [1]: no similar decrease was observed
intestinal PKD activity (phosphorylated PKD2 in jejunum) ([1]; 13 weeks, FIG. 6C): attenuated
blood cholesterol levels ([2]; FIG. 10A): reduction in cholesterol levels
size of atherosclerotic plaques (relative area in aorta, OilRedO) ([2]; FIG. 10B-C): smaller size of atherosclerotic plaques
TG secretion (basolateral release of 14C-labeled fatty acids) [3]: did not reduce TG secretion
PKD2-dependent phosphorylation of APOA4 [4]: abrogates PKD2-dependent phosphorylation
